Reference: paper PMC6312196 (ChemMedChem, 2018)
Substitutions are numbered along the chain they refer to. Read-outs that look alike come from different tables or passages of the source. Each block holds one compound with its values, some of them ahead of it.

Tests used:
ABL1 = biological target: T1, ABL1 (Homo sapiens, UniProt P00519); test: Enzymatic inhibition of ABL1 wild type; format: biochemical; conditions: read-out: IC50 ABL1 wild type; enzyme, Figure 8A
T1 sequence (P00519 242-493 limits assumed): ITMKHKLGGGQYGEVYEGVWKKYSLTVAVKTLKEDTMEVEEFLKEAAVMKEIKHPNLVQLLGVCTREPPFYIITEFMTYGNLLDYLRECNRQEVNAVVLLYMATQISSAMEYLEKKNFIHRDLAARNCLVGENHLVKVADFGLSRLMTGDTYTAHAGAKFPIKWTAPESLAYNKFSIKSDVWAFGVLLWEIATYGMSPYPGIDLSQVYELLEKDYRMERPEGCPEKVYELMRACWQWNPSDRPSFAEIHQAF

ABL1(T315I) [1] = biological target: ABL1(T315I) (Homo sapiens, UniProt P00519+P11274, T315I); test: Cellular ABL1 kinase phosphorylation assay in KCL22-IR; conditions: read-out: IC50 (mean ±SD) cellular ABL1 activity, KCL22-IR; 2 hours incubation, KCL22-T315I cells
K562 = test: Cellular proliferation assay; format: cell-based; conditions: read-out: IC50 (mean ±SD) K562
ABL1(T315I) [2] = biological target: T2, ABL1(T315I) (Homo sapiens, UniProt P00519, T315I); test: Enzymatic inhibition of ABL1; format: biochemical; conditions: read-out: IC50 ABL1(T315I); enzyme, Figure 8B
T2 sequence (P00519 242-493 T315I limits assumed): T1 sequence (P00519 242-493 limits assumed) with T74I

KCL22-IR = test: Cellular proliferation assay; format: cell-based; conditions: 72 h
KCL22 = test: Cellular proliferation assay; format: cell-based; conditions: read-out: IC50 (mean ±SD) KCL22
[3] = cited from earlier work
[4] = read-out: IC50 (mean ±SD) KCL22-IR, anti-proliferation, T315I mutation

Structure (SMILES): CN1CCN(Cc2ccc(NC(=O)c3cncc(C#Cc4cnc(N)c5ncccc45)c3)cc2C(F)(F)F)CC1 [Compound 16]
- IC50 (ABL1): < 5 nM
- IC50 (ABL1(T315I) [1]): 26 ± 1.1 nM
- IC50 (K562; anti-proliferation, 72 h): 0.765 ± 0.005 nM
- IC50 (ABL1(T315I) [2]): 40.7 nM
- IC50 (KCL22-IR; [4]): 4.14 ± 0.11 nM
- IC50 (KCL22; anti-proliferation, 72 h): 1.02 ± 0.04 nM

Structure (SMILES): Cc1ccc(C(=O)Nc2ccc(CN3CCN(C)CC3)c(C(F)(F)F)c2)cc1C#Cc1cnc2cccnn12 [Ponatinib, reference compound]
- IC50 (K562; Homo sapiens, K562, 72 h): 0.6003 ± 0.0023 nM
- patients reporting serious and non-serious thrombotic events ([3]; cardiovascular, cerebrovascular, peripheral vascular events): 17.1%
- deaths linked to the use of the drug ([3]; study n=499): Five
- IC50 (KCL22-IR; read-out: IC50 (mean ±SD) KCL22-IR): 0.66 ± 0.005 nM
- IC50 (KCL22; Homo sapiens, KCL-22, 72 h): 0.142 ± 0.003 nM

Structure (SMILES): Cc1ccc(NC(=O)c2ccc(CN3CCN(C)CC3)cc2)cc1Nc1nccc(-c2cccnc2)n1 [Imatinib, reference compound]
- IC50 (KCL22-IR; read-out: IC50 KCL22-IR (bound cells)): > 1000 nM

Continued, in another order:

- IC50 (ABL1): < 5 nM
- IC50 (ABL1(T315I) [1]): 36.4 ± 1.1 nM
- IC50 (K562; anti-proliferation, 72 h): 0.688 ± 0.003 nM
- IC50 (ABL1(T315I) [2]): 32.8 nM
Structure (SMILES): CN1CCN(Cc2ccc(NC(=O)c3cncc(C#Cc4c(N)ncc5ccc(F)cc45)c3)cc2C(F)(F)F)CC1 [Compound 29]
- IC50 (KCL22-IR; [4]): 4.1 ± 0.03 nM
- IC50 (KCL22; anti-proliferation, 72 h): 0.444 ± 0.008 nM

- IC50 (K562; anti-proliferation, 72 h): 1.85 ± 0.03 nM
Structure (SMILES): Cc1ccc(C(=O)Nc2ccc(CN3CCN(C)CC3)c(C(F)(F)F)c2)cc1C#Cc1cnc(N)c2ncccc12 [Compound 9]
- IC50 (KCL22-IR; [4]): 0.74 ± 0.004 nM
- IC50 (KCL22; anti-proliferation, 72 h): 0.18 ± 0.004 nM

- IC50 (ABL1): < 5 nM
- IC50 (ABL1(T315I) [1]): 18.9 ± 1.1 nM
- IC50 (K562; anti-proliferation, 72 h): 1.75 ± 0.04 nM
- IC50 (ABL1(T315I) [2]): 4.7 nM
Structure (SMILES): Cc1ncc(C(=O)Nc2ccc(CN3CCN(C)CC3)c(C(F)(F)F)c2)cc1C#Cc1cnc(N)c2ncccc12 [Compound 15]
- IC50 (KCL22-IR; [4]): 2.67 ± 0.07 nM
- IC50 (KCL22; anti-proliferation, 72 h): 0.303 ± 0.002 nM
